# From patent publication US9463254B2, “Molecular design toward dual-modality probes for radioisotope-based imaging (PET or SPECT) and MRI” (Board of Regents, The University of Texas System, priority 2013, dated 2016)
# Experiments:
# [1] = et al., cited from earlier work; for thermodynamic stability logK: Caravan, 1999
# [2] = MRI imaging and relaxivity measurements at 7.0 T; assay type: physicochemical
# Experimental: The T1-weighted MR images of samples in 0.5 mL microfuge tubes were collected using Agilent®/Varian™ 7.0 T ([…], 5 cm diameter volume coil) VNMRj's spin-echo sequence (SEMS) sequence. For imaging, the following parameters were used: TR=200 ms; effective echo time (TE)=11.5 ms; FOV 45×45 mm^2, data matrix=256×256, averaging=2, slice=1 mm, steady-state scans=5, single slice. The T1-maps of the samples at […] was determined from a series of multi-TR (0.005 s to 10 s) saturation-recovery spin-echo sequence (SEMS with minimum TE (11.5 ms); FOV 45×45 mm^2; matrix=128×128; averaging=5, steady state scans=5), fitted and calculated using the ImageJ software. All the fits for T1 values used to calculate the longitudinal relaxivity, r1, had fitting coefficients, R^2≧0.99. Three trials were performed. […] Such changes are well known that T1 relaxivity typically decreases with increasing field strength (Caravan, et al., 1999).
# [3] = 20 MHz, 39° C.; cited from earlier work
# [4] = Relaxivity measurements (T1 relaxivity, Maran Ultra relaxometer); assay type: physicochemical; conditions: 20 MHz, 25° C., Millipore water
# Experimental: The T1 values were recorded at […], 25° C. by using a Maran Ultra relaxometer (Oxford Instruments, UK). Longitudinal relaxation times were measured by using the inversion-recovery pulse sequence (180°-t-90°). The T1 relaxivities were determined by the linear regression analysis of the water proton relaxation rates in solutions ranging in concentration from 0.005 to 12 mM, in Millipore water in triplicate. At 20 MHz, 25° C., the relaxivity of Gd^3+-L was calculated to be 103.5±15 mM^−1 s^−1. Thus, each Gd in the complex accounts for relaxivity of 17.25 mM^−1 s^−1, while under the same conditions, the relaxivity of Gd(DOTA) complex is 3.5 mM^−1 s^−1. The relaxivity value of Gd^3+-L is approximately 400% higher than that of Gd(DOTA). This may be attributed to its higher molecular weight (larger size) and consequently longer rotational correlation time (tR). At ambient conditions (37° C.), the relaxivity value of Gd^3+-L remains unchanged. The measurement of the relaxivity value of Gd^3+-L in rat serum at 25° C. gives an enhanced relaxivity value of 145.5±9.2 mM^−1 s^−1.
compound,measurement,setting,value
O=C([O-])CN1CCN(CC(=O)[O-])CCN(CC(=O)[O-])CC1.[Ga+3] [Ga-NOTA],thermodynamic stability logK,[1],31.0
O=C([O-])CN(CCN(CC(=O)[O-])CC(=O)O)CCN(CC(=O)[O-])CC(=O)O.[Gd+3] [Gd-DTPA],Log K compared with that of Gd-NOTA complex,"[1]; Reichert, 1996",about eight orders of magnitude higher
O=C([O-])CN1CCN(CC(=O)[O-])CCN(CC(=O)[O-])CC1.[Gd+3] [Gd-NOTA],thermodynamic stability logK,[1],14.3
CNC[C@H](O)[C@@H](O)[C@H](O)[C@H](O)CO.CNC[C@H](O)[C@@H](O)[C@H](O)[C@H](O)CO.O=C([O-])CN(CCN(CC(=O)[O-])CC(=O)O)CCN(CC(=O)[O-])CC(=O)O.[Gd+3] [magnevist],r1 (longitudinal relaxivity) of the comparator,[2],4.1 mM^−1 S^1
Gadomer-17,ionic relaxivity,[3],17.3 mM⁻¹ s⁻¹
"gadolinium-1,4,7,10-tetrakis(carboxymethyl) cyclododecane [Gd(DOTA)]",relaxivity,[4],3.5 mM⁻¹ s⁻¹
same,thermodynamic stability logK,[1],24.7
